According to patent EP0236948A2, “Novel compounds WK-142 and process for preparing the same” (KITASATO KENKYUSHO, priority 1986, dated 1987):
Non-standard residues stand in square brackets, D forms with d. Residues, ends and D or L forms follow the SMILES beside them. *: point of attachment. Sta = CC(C)C[C@H](N)[C@@H](O)CC(=O)O; Isovaleryl = CC(C)CC(=O)*

Legend:
[1] = biological target: T1, pepsin from coats of pig's stomach (Sus scrofa, UniProt P00791); assay: Pepsin-inhibiting activity (method of Anson et al); format: biochemical; conditions: pepsin from coats of pig's stomach (P7012, Sigma)
T1 construct: using pepsin from coats of pig's stomach (P7012 manufactured by Sigma Chemical Inc.); purchased Sigma Chemical Inc. P7012; host or cells: pig stomach mucosa
Procedure: • (1) Pepsin-Inhibiting Activity: The pepsin-inhibiting activity was measured in terms of IC50 value according to the method of Anson et al [Journal of General Physiology 22, 79 (1938)] using pepsin from coats of pig's stomach (P7012 manufactured by Sigma Chemical Inc.).

[2] = system: renin obtained from pig's kidney; assay: Renin-inhibiting activity (method of Ikeda et al); format: biochemical

T1 sequence (P00791 60-385): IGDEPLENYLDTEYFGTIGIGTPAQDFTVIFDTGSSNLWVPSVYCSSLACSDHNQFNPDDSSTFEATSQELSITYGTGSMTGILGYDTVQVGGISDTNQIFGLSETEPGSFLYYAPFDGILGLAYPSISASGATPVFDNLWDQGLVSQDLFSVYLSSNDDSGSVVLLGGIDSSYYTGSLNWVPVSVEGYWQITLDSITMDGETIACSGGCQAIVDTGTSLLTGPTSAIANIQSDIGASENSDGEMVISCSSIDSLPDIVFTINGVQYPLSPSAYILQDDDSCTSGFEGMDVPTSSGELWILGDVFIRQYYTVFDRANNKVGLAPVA

CC(C)CC(=O)NC(C(=O)NC(C(=O)NC(CC(C)C)C(O)CC(=O)NC(C)C(=O)NC(Cc1ccccc1)C(O)CC(=O)O)C(C)C)C(C)C (stereo not drawn) [compound A]
IC50 [1]: 10 nM

CC(C)CC(=O)N[C@H](C(=O)N[C@H](C(=O)N[C@@H](CC(C)C)[C@@H](O)CC(=O)N[C@@H](C)C(=O)N[C@@H](CC(C)C)[C@@H](O)CC(=O)O)C(C)C)C(C)C [pepstatin A] (Isovaleryl-VV[Sta]A[Sta]-OH)
IC50 [2]: 470 nM | IC50 [1]: 3 nM
